Results from patent US4690923A, “2-(Perhydro-1,4-diazino)-pyrimido(5,4-D)-pyrimidines, pharmaceutical compositions and use” (Karl Thomae GmbH, priority 1979, dated 1987).
pEC50: −log10 of the molar value.

Tests used:
thrombocytes = experiment: Collagen-induced aggregation of thrombocytes in human platelet-rich plasma (Born and Cross); format: cell-based; conditions: 10 min, platelet-rich plasma of healthy human subjects, incubated 10 minutes at 37° C. before collagen, determined graphically, read-out: EC50 (dosage producing 50% inhibition of the thrombocyte aggregation)
Experimental: The aggregation of thrombocytes was measured according to the method of BORN and CROSS [J. Physiol. 170, 397 (1964)] in the platelet-rich plasma of healthy human test subjects. To inhibit coagulation, the blood was admixed with a 3.14% sodium citrate solution in a volumetric ration of 1:10.
The decrease in optical density was measured and recorded photometrically after the addition of the aggreation-inducing substance. From the angle of inclination of the density curve, the rate of aggregation was estimated (Vmax). The optical density was taken as the point on the curve where the most light was transmitted (O.D.).
Small doses of collagen were chosen, but sufficient to give irreversible aggregation. (Commercial collagen of Hormonchemie, Munich, Germany.)
Before the addition of collagen, the plasma was incubated with the substance for 10 minutes at 37° C.,
The dosage of the test compound which produced a 50% inhibition of the thrombocyte aggregation was determined graphically (EC50).

mice = experiment: Acute toxicity after oral administration of a single dose; format: in vivo; conditions: mouse, oral single dose 250 mg/kg, observation time 7 days
Experimental: (§1) The acute toxicity was determined in groups of 5 mice each after oral administration of a single dose of 250 mg/kg (observation time: 7 days). The test compound was suspended in 2% methyl cellulose, and after addition of some water, each substance was administered to the conscious animals by means of a stomach tube.

[1] = as above; format: in vivo; conditions: in vivo; mouse, oral single dose 250 mg/kg, 5 mice each, observation time 7 days; read-out: Acute toxicity per os
Experimental: as §1

Row | Structure (SMILES) | pEC50 (thrombocytes) | animals died (mice) | LD50 at 168 h [1] [mg/kg]
1 | CCSc1ncnc2c(N3CC[S+]([O-])CC3)nc(N3CCNCC3)nc12 [B, 8-Ethylthio-4-(1-oxido-thiomorpholino)-2-piperazino-pyrimido-[5,4-d]-pyrimidine] | > 8.00 |  | 
2 | c1ccc(CSc2ncnc3c(N4CCOCC4)nc(N4CCNCC4)nc23)cc1 [C, 8-Benzylthio-4-morpholino-2-piperazino-pyrimido-[5,4-d]-pyrimidine] | 8.07 | 0 out of 5 animals | > 250
3 | CSc1ncnc2c(N3CC[S+]([O-])CC3)nc(N3CCNCC3)nc12 [Compound A, 8-Methylthio-4-(1-oxido-thiomorpholino)-2-piperazino-pyrimido-[5,4-d]-pyrimidine] | 9.00 |  | 
4 | [O-][S+]1CCN(c2nc(N3CCNCC3)nc3c(SCCc4ccccc4)ncnc23)CC1 [Compound E, 4-(1-Oxido-thiomorpholino)-8-phenethylthio-2-piperazino-pyrimido-[5,4-d]-pyrimidine] | 7.66 | 0 out of 5 animals | > 250
5 | [O-][S+]1CCN(c2nc(N3CCNCC3)nc3c(SCc4ccccc4)ncnc23)CC1 [D, 8-Benzylthio-4-(1-oxido-thiomorpholino)-2-piperazino-pyrimido-[5,4-d]-pyrimidine] | 7.52 | 0 out of 5 animals | > 250
6 | [O-][S+]1CCN(c2nc(N3CCN(CCO)CC3)nc3c(SCc4ccccc4)ncnc23)CC1 [F, 8-Benzylthio-2-[N-(2-hydroxyethyl)-piperazino]-4-(1-oxido-thiomorpholino)-pyrimido-[5,4-d]-pyrimidine] | 6.42 | 0 out of 5 animals | > 250
7 | CCN(CC)CCSc1ncnc2c(N3CC[S+]([O-])CC3)nc(N3CCNCC3)nc12 [G, 8-(2-Diethylaminoethyl-thio)-4-(1-oxido-thiomorpholino)-2-piperazino-pyrimido-[5,4-d]-pyrimidine] | 7.70 | 0 out of 5 animals | > 250
8 | O=C(c1ccco1)N1CCN(c2nc(N3CCOCC3)c3ncnc(SCc4ccccc4)c3n2)CC1 [H, 8-Benzylthio-2-[N-(2-furoyl)-piperazino]-4-morpholino-pyrimido-[5,4-d]-pyrimidine] | 7.00 | 0 out of 5 animals | > 250
9 | COc1ccc(CSc2ncnc3c(N4CCOCC4)nc(N4CCNCC4)nc23)cc1OC [I, 8-(3,4-dimethoxybenzyl-thio)-4-morpholino-2-piperazino-pyrimido-[5,4-d]-pyrimidine] | 8.00 |  | 
10 | CN1CCN(c2nc(N3CC[S+]([O-])CC3)c3ncnc(SCc4ccccc4)c3n2)CC1 [K, 8-Benzylthio-2-(N-methyl-piperazino)-4-(1-oxido-thio-morpholino)-pyrimido-[5,4-d]-pyrimidine] | 6.46 | 0 out of 5 animals | > 250
11 | Clc1ccc(CSc2ncnc3c(N4CCOCC4)nc(N4CCNCC4)nc23)c(Cl)c1 [L, 8-(2,4-Dichlorobenzyl-thio)-4-morpholino-2-piperazino-pyrimido-[5,4-d]-pyrimidine] | 8.10 | 0 out of 5 animals | > 250
12 | O=CN1CCN(c2nc(N3CC[S+]([O-])CC3)c3ncnc(SCc4ccccc4)c3n2)CC1 [M, 8-Benzylthio-2-(N-formyl-piperazino)-4-(1-oxido-thiomorpholino)-pyrimido-[5,4-d]-pyrimidine] | 7.82 | 0 out of 5 animals | > 250
13 | OCCOc1ncnc2c(N3CCOCC3)nc(N3CCNCC3)nc12 [N, 8-(2-Hydroxyethoxy)-4-morpholino-2-piperazino-pyrimido-[5,4-d]-pyrimidine] | 7.40 |  | 
14 | [O-][S+]1CCN(c2nc(N3CCNCC3)nc3c(SCCO)ncnc23)CC1 [O, 8-(2-Hydroxyethyl-thio)-4-(1-oxido-thiomorpholino)-2-piperazino-pyrimido-[5,4-d]-pyrimidine] | 7.55 | 0 out of 5 animals | > 250
15 | c1ccc(Sc2ncnc3c(N4CCSCC4)nc(N4CCNCC4)nc23)cc1 [P, 8-Phenylthio-2-piperazino-4-thiomorpholino-pyrimido-[5,4-d]-pyrimidine] | ~7.00 |  | 
16 | [O-][S+]1CCN(c2nc(N3CCNCC3)nc3c(OCc4ccccc4)ncnc23)CC1 [Q, 8-Benzyloxy-4-(1-oxido-thiomorpholino)-2-piperazino-pyrimido-[5,4-d]-pyrimidine] | 8.44 | 0 out of 5 animals | > 250
17 | [O-][S+]1CCN(c2nc(N3CCNCC3)nc3c(NCc4ccccc4)ncnc23)CC1 [R, 8-Benzylamino-4-(1-oxido-thiomorpholino)-2-piperazino-pyrimido-[5,4-d]-pyrimidine] | 8.38 | 0 out of 5 animals | > 250
18 | CN(Cc1ccccc1)c1ncnc2c(N3CC[S+]([O-])CC3)nc(N3CCNCC3)nc12 [S, 8-(N-Benzyl-methylamino)-4-(1-oxido-thiomorpholino)-2-piperazino-pyrimido-[5,4-d]-pyrimidine] | 8.52 | 0 out of 5 animals | > 250
19 | c1ccc(CNc2ncnc3c(N4CCSCC4)nc(N4CCNCC4)nc23)cc1 [T, 8-Benzylamino-2-piperazino-4-thiomorpholino-pyrimido-[5,4-d]-pyrimidine] | 6.60 | 0 out of 5 animals | > 250
20 | CN(Cc1ccccc1)c1ncnc2c(N3CC[S+]([O-])CC3)nc(N3CCN(C=O)CC3)nc12 [U, 8-(N-Benzyl-methylamino)-2-(N-formyl-piperazino)-4-(1-oxido-thiomorpholino)-pyrimido-[5,4-d]-pyrimidine] | 6.54 | 1 out of 5 animals | > 250
21 | [O-][S+]1CCN(c2nc(N3CCNCC3)nc3c(Nc4ccccc4)ncnc23)CC1 [V, 8-Anilino-4-(1-oxido-thiomorpholino)-2-piperazino-pyrimido-[5,4-d]-pyrimidine] | 7.52 | 1 out of 5 animals | > 250
